Test results as given in patent US9096560B2, “5-heterocyclylalkyl-3-hydroxy-2-phenylcyclopent-2-enones as herbicides” (Syngenta Limited, priority 2008, dated 2015).

How the values were obtained:
Assay type in all cases: in vivo
Setaria faberi (SETFA) = assay: Example A post-emergence herbicidal test, SETFA; conditions: rate 250 g/ha, evaluated 14 or 15 days after spraying
Experimental: (§1) Seeds of a variety of test species were sown in standard soil in pots. After cultivation for one day (pre-emergence) or after 10 days cultivation (post-emergence) under controlled conditions in a glasshouse, the plants were sprayed with an aqueous spray solution derived from the formulation of the technical active ingredient in 0.6 ml acetone and 45 ml formulation solution containing 10.6% Emulsogen EL (Registry number 61791-12-6), 42.2% N-methylpyrrolidone, 42.2% dipropylene glycol monomethyl ether (Registry number 34590-94-8) and 0.2% X-77 (Registry number 11097-66-8). The test plants were then grown in a greenhouse under optimum conditions until, 14 or 15 days later for post-emergence and 19 or 20 days for pre-emergence, the test was evaluated (100=total damage to plant; 0=no damage to plant). Alopecurus myosuroides (ALOMY), Avena fatua (AVEFA), Lolium perenne (LOLPE), Setaria faberi (SETFA), Digitaria sanguinalis (DIGSA), Echinochloa crus-galli (ECHCG) Post-Emergence Activity

[1] = system: Echinochloa crus-galli (ECHCG); assay: Example A post-emergence herbicidal test, ECHCG; conditions: rate 250 g/ha, evaluated 14 or 15 days after spraying
Experimental: as §1

Lolium perenne (LOLPE) [2] = assay: Example B post-emergence herbicidal test, LOLPE; conditions: Lolium perenne, 312 h, rate 250 g/ha, evaluated after 13 days, scale 0-100, read-out: Post-emergence activity LOLPE (100=total damage to plant; 0=no damage to plant)
Outline: (§2)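 Damage was rated visually 13 days after treatment, where 100 meant total plant damage and 0 none. Treatment was a spray of aqueous solution (acetone/water 50:50, 0.5% Tween 20) applied to plants cultivated 8 days from seed under controlled glasshouse conditions.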

[3] = system: Winter Wheat variety 'Hereward'; assay: Example C crop damage test on Winter Wheat, post-emergence, no safener; conditions: Triticum aestivum, 312 h, rate 250 g/ha, evaluated after 13 days, read-out: Winter Wheat (Hereward) damage (100=total damage to plant; 0=no damage to plant)
Experimental: Seeds of the Winter Wheat variety ‘Hereward’ were sown in standard soil in pots. After 8 days cultivation under controlled conditions in a glasshouse (at 24/16° C., day/night; 14 hours light; 65% humidity), the plants were sprayed with an aqueous spray solution derived from the formulation of the technical active ingredient in acetone/water (50:50) solution containing 0.5% Tween 20 (polyoxyethelyene sorbitan monolaurate, CAS RN 9005-64-5). The test plants were then grown in a glasshouse under controlled conditions in a glasshouse (at 24/16° C., day/night; 14 hours light; 65% humidity) and watered twice daily. After 13 days for pre and post-emergence, the test was evaluated (100=total damage to plant; 0=no damage to plant).

Avena fatua (AVEFA) [4] = assay: Example A post-emergence herbicidal test, AVEFA; conditions: rate 250 g/ha, evaluated 14 or 15 days after spraying
Experimental: as §1

[5] = system: Winter Wheat variety 'Hereward' seed treated with cloquintocet mexyl; assay: Example C crop damage test on Winter Wheat seed treated with safener cloquintocet mexyl, post-emergence; conditions: rate 250 g/ha, seed treated with cloquintocet mexyl 0.5 grams per kilogram of dry seed, evaluated after 13 days
Experimental: Seeds of the Winter Wheat variety ‘Hereward’ were seed treated with a wettable powder formulation of the cereal herbicide safener, cloquintocet mexyl, at a rate of 0.5 grams per kilogram of dry seed prior to the initiation of glasshouse testing. One seed was sown per 1.5 inch plastic pot into a sandy loam soil at a depth of 1 cm, 8 days prior to application of the test compounds and was watered and grown under controlled conditions in a glasshouse (at 24/16° C., day/night; 14 hours light; 65% humidity). The plants were sprayed Post-emergence with an aqueous spray solution derived from the formulation of the technical active ingredient in acetone/water (50:50) solution containing 0.5% Tween 20 (polyoxyethelyene sorbitan monolaurate, CAS RN 9005-64-5). The test plants were then grown in a glasshouse under controlled conditions in a glasshouse (at 24/16° C., day/night; 14 hours light; 65% humidity) and watered twice daily. After 13 days for pre and post-emergence, the test was evaluated (100=total damage to plant; 0=no damage to plant).

[6] = system: Alopecurus myosuroides (ALOMY); assay: Example A post-emergence herbicidal test, ALOMY; conditions: rate 250 g/ha, evaluated 14 or 15 days after spraying
Experimental: as §1

[7] = system: Alopecurus myosuroides (ALOMY); assay: Example B post-emergence herbicidal test, ALOMY; conditions: Alopecurus myosuroides, 312 h, rate 250 g/ha, evaluated after 13 days, scale 0-100, read-out: Post-emergence activity ALOMY (100=total damage to plant; 0=no damage to plant)
Outline: as §2

[8] = system: Echinochloa crus-galli (ECHCG); assay: Example B post-emergence herbicidal test, ECHCG; conditions: Echinochloa crus-galli, 312 h, rate 250 g/ha, evaluated after 13 days, scale 0-100, read-out: Post-emergence activity ECHCG (100=total damage to plant; 0=no damage to plant)
Outline: as §2

Lolium perenne (LOLPE) [9] = assay: Example A post-emergence herbicidal test, LOLPE; conditions: rate 250 g/ha, evaluated 14 or 15 days after spraying
Experimental: as §1

Avena fatua (AVEFA) [10] = assay: Example B pre-emergence herbicidal test, AVEFA; conditions: Avena fatua, 312 h, rate 250 g/ha, evaluated after 13 days, 100=total damage to plant, 0=no damage to plant
Outline: (§3)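 Plants were rated 13 days after treatment, 0 = no damage to 100 = total damage. They were grown in a glasshouse at 24/16 °C, 14 h light, 65% humidity and watered twice daily. Pre-emergence spray was applied one day after sowing, formulated in acetone/water 50:50 with 0.5% Tween 20.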

[11] = system: Digitaria sanguinalis (DIGSA); assay: Example A post-emergence herbicidal test, DIGSA; conditions: rate 250 g/ha, evaluated 14 or 15 days after spraying
Experimental: as §1

Avena fatua (AVEFA) [12] = assay: Example B post-emergence herbicidal test, AVEFA; conditions: Avena fatua, 312 h, rate 250 g/ha, evaluated after 13 days, scale 0-100, read-out: Post-emergence activity AVEFA (100=total damage to plant; 0=no damage to plant)
Outline: as §2

[13] = system: Echinochloa crus-galli (ECHCG); assay: Example B pre-emergence herbicidal test, ECHCG; conditions: Echinochloa crus-galli, 312 h, rate 250 g/ha, evaluated after 13 days, 100=total damage to plant, 0=no damage to plant
Outline: as §3

Lolium perenne (LOLPE) [14] = assay: Example B pre-emergence herbicidal test, LOLPE; conditions: Lolium perenne, 312 h, rate 250 g/ha, evaluated after 13 days, 100=total damage to plant, 0=no damage to plant
Outline: as §3

[15] = system: Alopecurus myosuroides (ALOMY); assay: Example B pre-emergence herbicidal test, ALOMY; conditions: Alopecurus myosuroides, 312 h, rate 250 g/ha, evaluated after 13 days, 100=total damage to plant, 0=no damage to plant
Outline: as §3

| Compound | Post-Emergence Activity SETFA (100=total damage to plant; 0=no damage to plant) (Setaria faberi (SETFA)) | Post-Emergence Activity ECHCG (100=total damage to plant; 0=no damage to plant) [1] | pest or weed control at 250 g/ha (Lolium perenne (LOLPE) [2]) [%] | crop damage to winter wheat at 250 g/ha [3] [%] | Post-Emergence Activity AVEFA (100=total damage to plant; 0=no damage to plant) (Avena fatua (AVEFA) [4]) | Winter Wheat (Hereward) + cloquintocet mexyl damage (100=total damage to plant; 0=no damage to plant) [5] | Post-Emergence Activity ALOMY (100=total damage to plant; 0=no damage to plant) [6] | pest or weed control at 250 g/ha [7] [%] | pest or weed control at 250 g/ha [8] [%] | Post-Emergence Activity LOLPE (100=total damage to plant; 0=no damage to plant) (Lolium perenne (LOLPE) [9]) | pest or weed control at 250 g/ha (Avena fatua (AVEFA) [10]) [%] | Post-Emergence Activity DIGSA (100=total damage to plant; 0=no damage to plant) [11] | pest or weed control at 250 g/ha (Avena fatua (AVEFA) [12]) [%] | pest or weed control at 250 g/ha [13] [%] | pest or weed control at 250 g/ha (Lolium perenne (LOLPE) [14]) [%] | pest or weed control at 250 g/ha [15] [%] |
| --- | --- | --- | --- | --- | --- | --- | --- | --- | --- | --- | --- | --- | --- | --- | --- | --- |
| Cc1cc(C)c(C2=C(OC(=O)C(C)(C)C)CC(CC3CCOCC3)C2=O)c(C)c1 (stereo not shown) [Compound P5] | 80 | 100 | 100 | 60 | 100 | 30 | 100 | 100 | 100 | 100 | 80 | 70 | 90 | 100 | 100 | 100 |
| Cc1cc(C)c(C2C(=O)CC(CC3CCOCC3)C2=O)c(C)c1 (stereo not shown) [Compound T4] | 90 | 100 | 100 | 70 | 90 | 40 | 100 | 100 | 100 | 100 | 90 | 90 | 100 | 100 | 100 | 100 |
| Cc1cc(C)c(C2C(=O)CC(CC3CCOC3)C2=O)c(C)c1 (stereo not shown) [Compound T5] | 30 | 80 | 100 | 80 | 80 | 20 | 100 | 100 | 100 | 100 | 80 | 50 | 90 | 100 | 100 | 100 |
| Cc1cc(C)c(C2C(=O)C/C(=C\C3CCOCC3)C2=O)c(C)c1 (stereo not shown) [Compound T8] | 100 | 100 | 100 | 90 | 90 | 80 | 100 | 100 | 100 | 100 | 100 | 80 | 100 | 100 | 100 | 100 |
